The record followed here is patent publication US10130724B2, “Mini-gastrin analogue, in particular for use in CCK2 receptor positive tumour diagnosis and/or treatment” (PAUL SCHERRER INSTITUT, priority 2013, dated 2018).

Series [1] is described as follows: Stability of 177Lu-labelled mini-gastrin analogues in human serum, metabolites by HPLC. In kind it is in vitro ADME. Particulars: compared to PP-F11, PP-F10N and PP-F10. The method, then:
12 MBq of the radiolabelled compound was incubated in 2 mL fresh human plasma. A 40 μL probe was taken after 0, 1, 2, 18, 24, 48 and 72 h and added 200 μL (50% Methanol and 50% Acetonitril) in a Mini-UniPrep Filter. The solution is filtered after vortexing. 40 μL of the filtered solution is analyzed by HPLC.

The test system of series [2] is human CCK-2 receptor transfected A431 cells. The experiment in a line: Biodistribution of 177Lu-labelled mini-gastrin analogues in tumour-bearing CD1 nu/nu mice. In kind it is in vivo. To be noted: 4 hours after injection. The method, then: PP-F11N has been investigated according to the CD1 nu/nu mice model. […] FIG. 2 illustrates the biodistribution of PP-F11, PP-F11N and oxidized PP-F11 ox (oxidized PP-F11) after 4 hours in the athymic CD1 nu/nu mice model. Tumour positive: with human CCK-2 receptor transfected A431 cells on one side of the mouse; tumor negative: CCK-2 receptor negative A431 cells on the other side of the mouse. The effect of the higher tumor uptake by the exchange of methionine with norleucine is specifically apparent with compounds having the DGlu6 sequence, different from compounds having a sequence with DGLn6 which is referred to as PP-F10.
CD1 nu/nu mice were injected with 5×10^6 A431 cells. CCK-2 receptor positive A431 cells' were injected into one flank and mock cells on the other as an unspecific control. The tumors reach a weight of about 80 to 120 mg after about 10 days. 150-200 kBq (5 pmol) of the radiolabelled peptides were injected into the tail vein. Mice were killed by CO2 asphyxiation after defined time points post injection. The organs were dissected, weighted and the activity was measured. The % injected activity per gram (% i.A./g) was calculated. The animal experiments were approved by the local animal welfare committee and performed according to national regulations.

For the compound `CCCC[C@H](NC(=O)[C@H](Cc1c[nH]c2ccccc12)NC(=O)CNC(=O)[C@H](Cc1ccc(O)cc1)NC(=O)[C@H](C)NC(=O)[C@@H](CCC(=O)O)NC(=O)[C@@H](CCC(=O)O)NC(=O)[C@@H](CCC(=O)O)NC(=O)[C@@H](CCC(=O)O)NC(=O)[C@@H](CCC(=O)O)NC(=O)[C@@H](CCC(=O)O)NC(=O)CN1CCN(CC(=O)O)CCN(CC(=O)O)CCN(CC(=O)O)CC1)C(=O)N[C@@H](CC(=O)O)C(=O)N[C@@H](Cc1ccccc1)C(N)=O` [PP-F11N], the pharmacologic stability entry in series [1] is given as “highest pharmacologic stability of all probands”. Also, in series [2], the “accumulation in the kidneys” value is reported as “very few accumulation in the kidneys”.
